Patent US20090053168A1, “TREATMENTS OF B-CELL PROLIFERATIVE DISORDERS” (priority 2007, published 2009)
“And” between values parts separate entries of the source, which are not always exact repeats. Equal entries are not always repeated. Where two headings read alike, the source gives them in different places.

Columns and labels:
MOLP-8 cells = test: Anti-proliferation assay (ATPLite, 72 h), MOLP-8; type: cell-based; details: in combination with CGS-21680
OPM2 cells = test: Anti-proliferation assay (ATPLite, 72 h), OPM2; type: cell-based, human; details: in combination with CGS-21680; OPM-8
Karpas 422 DLBCL cells = test: Anti-proliferation assay (ATPLite, 72 h), Karpas 422; type: cell-based; details: in combination with CGS-21680
MM.1S cells [1] = test: Anti-proliferation assay (ATPLite, 72 h), MM.1S
OCI-ly10 DLBCL cells = test: Anti-proliferation assay (ATPLite, 72 h), OCI-ly10; type: cell-based; details: in combination with CGS-21680
H929 cells = test: Anti-proliferation assay (ATPLite, 72 h), H929; type: cell-based
KSM-12-PE cells = test: Anti-proliferation assay (ATPLite, 72 h), KSM-12-PE; type: cell-based
EJM cells = test: Anti-proliferation assay (ATPLite, 72 h), EJM; type: cell-based
RPMI-8226 cells = test: Anti-proliferation assay (ATPLite, 72 h), RPMI-8226; type: cell-based; details: in combination with ADAC; RPMI-8226
SU-DHL6 DLBCL cells = test: Anti-proliferation assay (ATPLite, 72 h), SU-DHL6; type: cell-based; details: in combination with CGS-21680
MM.1R cells = test: Anti-proliferation assay (ATPLite, 72 h), MM.1R; type: cell-based; details: in combination with ADAC; MM.1R
ANBL-6 cells = test: Anti-proliferation assay (ATPLite, 72 h), ANBL-6; type: cell-based; details: in combination with CGS-21680
[2] = system: chronic lymphocytic leukemia (CLL) cells; test: Apoptosis assay (Hoechst 33342 flow cytometry, 48 h) on patient CLL cells; type: cell-based, human
From the text: Patients with active infections or other serious medical conditions were not included in this study. Patients with white blood cell counts of less than 15,000/μl by automated analysis were excluded from this study. Whole blood was layered on Ficoll-Hystopaque (Sigma), and peripheral blood mononuclear cells (PBMC) isolated after centrification. […] One million cells were stained with anti-CD5-PE and anti-CD19-PE-Cy5 (Becton […].). The percentage of B-CLL cells was defined as the percentage of cells doubly expressing CD5 and CD19, as determined by flow cytometry. […] Compound master plates were diluted 1:50 into complete media to create working compound dilutions. Compound crosses were then created by diluting two working dilution plates 1:10 into each plate of cells. […] Hoechst 33342 (Molecular Probes, Eugene Oreg.) at a final concentration of 0.25 μg/mL was added to each well and the cells incubated at 37° C. for an additional ten minutes before being placed on ice until analysis. Plates were then analyzed on a LSR-II flow cytometer (Becton Dickenson, Franklin Lakes, N.J.) equipped with the High Throughput Sampling (HTS) option in high throughput mode. […] The apoptotic fraction was calculated using FlowJo software (Tree Star Inc., Ashland, Oreg.) after excluding debris by a FSC/SSC gate and subsequently gating for cells that accumulate the Hoechst dye.

MM.1S cells [3] = system: MM.1S cells
[4] = system: mantle cell lymphoma cell line Mino; test: Anti-proliferation assay (ATPLite, 72 h), Mino; type: cell-based, human; details: in combination with HE-NECA; Mino
Procedure: (§1) All of the cell lines were cultured in RPMI-1640 media supplemented with 10% FBS except OCI Ly10 cells (IMDM media supplemented with 20% human serum). The ANBL-6 cell line culture media also contained 10 ng/ml IL-6. MM.1S, MM.1R, SU-DHL6, Karpas 422, and OCI ly10 cells were provided by the Dana Farber Cancer Institute. ANBL-6 cells were provided by Bob Orlowsli (M.D. Anderson Cancer Research Center). H929, RPMI-8226, GA-10, Farage, Mino, JVM-13, Pfeiffer, Toledo, and Kusami-1 cells were from ATCC (Cat #'s CCL-155, CRL-9068, CRL-2392 CRL-2630, CRL-3000, CRL-3003, CRL-2632, CRL-2631, and CRL-2724 respectively). MOLP-8, OPM2, EJM, and KSM-12-PE cells were from DSMZ.
(§2) Compounds were prepared in DMSO at 1000× the highest desired concentration. Master plates were generated consisting of serially diluted compounds in 2- or 3-fold dilutions in 384-well format. For single agent dose response curves, the master plates consisted of 9 individual compounds at 12 concentrations in 2- or 3-fold dilutions. For combination matrices, master plates consisted of individual compounds at 6 or 9 concentrations at 2- or 3-fold dilutions.
(§3) The average untreated well value (avg. untreated wells) is the arithmetic mean of 40 wells from the same assay plate treated with vehicle alone. Negative inhibition values result from local variations in treated wells as compared to untreated wells.
(§4) The uncertainty of each fitted parameter was estimated from the range over which the change in reduced chi-squared was less than one, or less than minimum reduced chi-squared if that minimum exceeded one, to allow for underestimated σI errors.
(§5) Single agent curve data were used to define a dilution series for each compound to, be used for combination screening in a 6×6 matrix format. […] For compounds with no detectable single agent activity, a dilution factor of 4 was used, starting from the highest achievable concentration.
(§6) The Loewe additivity model was used to quantify combination effects. Combinations were ranked initially by Additivity Excess Volume, which is defined as ADD Volume=ΣCX, CY(Idata−ILoewe). where ILoewe(CX,CY) is the inhibition that satisfies (CX/ECX)+(CY/ECY)=1, and ECX,Y are the effective concentrations at ILoewe for the single agent curves. A “Synergy Score” was also used, where the Synergy Score S=log fX log fY ΣIdata (Idata−ILoewe), summed over all non-single-agent concentration pairs, and where log fX,Y is the natural logarithm of the dilution factors used for each single agent.

[5] = system: Kasumi-1 (acute myelogenous leukemia) cells; test: Anti-proliferation assay (ATPLite, 72 h), Kasumi-1; type: cell-based; details: in combination with HE-NECA
Procedure: as §1, §2
(§7) The average untreated well value (avg. untreated wells) is the arithmetic mean of 40 wells from the same assay plate treated with vehicle alone. […]
(§8) The Loewe additivity model was used to quantify combination effects. […]

[6] = system: mantle cell lymphoma cell line JVM-13; test: Anti-proliferation assay (ATPLite, 72 h), JVM-13; type: cell-based, human; details: in combination with HE-NECA; JVM-13
Procedure: as §1, §2, §3, §4, §5, §6

[7] = system: Pfeiffer (diffuse large B cell lymphoma) cells; test: Anti-proliferation assay (ATPLite, 72 h), Pfeiffer; type: cell-based; details: in combination with HE-NECA
Procedure: as §1, §2, §7, §8

C[C@@H]1C[C@H]2[C@@H]3CCC4=CC(=O)C=C[C@]4(C)[C@@]3(F)[C@@H](O)C[C@]2(C)[C@@]1(O)C(=O)CO [dexamethasone]
synergy score (MOLP-8 cells): 4.86
synergy score (OPM2 cells): 2.85
synergy score (Karpas 422 DLBCL cells): 4.32
percent inhibition of cell proliferation (MM.1S cells [1]; DEX 0.0462 nM, Cl-IB-MECA 0 nM, MM.1S, 72 h): 12%
percent inhibition of cell proliferation (MM.1S cells [1]; DEX 0.139 nM alone, listed as DEX): 1.8% and 10%
percent inhibition of cell proliferation (MM.1S cells [1]; DEX 0.139 nM, Cl-IB-MECA 0 nM, MM.1S, 72 h): 0.78%
percent inhibition of cell proliferation (MM.1S cells [1]; DEX 0.416 nM alone): 8.3%
percent inhibition of cell proliferation (MM.1S cells [1]; DEX 1.85 nM alone, listed as DEX): 14% and 27%
percent inhibition of cell proliferation (MM.1S cells [1]; DEX 1.85 nM, CCPA 0 μM, MM.1S, 72 h): 13%
percent inhibition of cell proliferation (MM.1S cells [1]; DEX 3.74 nM alone): 32%
percent inhibition of cell proliferation (MM.1S cells [1]; DEX 3.74 nM, Cl-IB-MECA 0 nM, MM.1S, 72 h): 22%
percent inhibition of cell proliferation (MM.1S cells [1]; DEX 5.56 nM alone, listed as DEX): 20% and 30% and 33%
percent inhibition of cell proliferation (MM.1S cells [1]; DEX 5.56 nM, CCPA 0 μM, MM.1S, 72 h): 36%
percent inhibition of cell proliferation (MM.1S cells [1]; DEX 11.2 nM alone, listed as DEX): 28% and 54%
percent inhibition of cell proliferation (MM.1S cells [1]; DEX 11.2 nM, Cl-IB-MECA 0 nM, MM.1S, 72 h): 29%
percent inhibition of cell proliferation (MM.1S cells [1]; DEX 33.7 nM alone, listed as DEX): 48% and 64%
percent inhibition of cell proliferation (MM.1S cells [1]; DEX 33.7 nM, Cl-IB-MECA 0 nM, MM.1S, 72 h): 56%
percent inhibition of cell proliferation (MM.1S cells [1]; DEX 0.0378 μM alone): 61%
percent inhibition of cell proliferation (MM.1S cells [1]; DEX 50 nM alone, listed as DEX): 55% and 79% and 70%
percent inhibition of cell proliferation (MM.1S cells [1]; DEX 50 nM, CCPA 0 μM, MM.1S, 72 h): 72%
percent inhibition of cell proliferation (MM.1S cells [1]; DEX 101 nM alone, listed as DEX): 64% and 68%
percent inhibition of cell proliferation (MM.1S cells [1]; DEX 101 nM, Cl-IB-MECA 0 nM, MM.1S, 72 h): 67%
percent inhibition of cell proliferation (MM.1S cells [1]; DEX 0.113 μM alone): 76%
percent inhibition of cell proliferation (MM.1S cells [1]; DEX 150 nM alone, listed as DEX): 73% and 87% and 80%
percent inhibition of cell proliferation (MM.1S cells [1]; DEX 150 nM, CCPA 0 μM, MM.1S, 72 h): 76%
percent inhibition of cell proliferation (MM.1S cells [1]; DEX 303 nM alone): 70%
percent inhibition of cell proliferation (MM.1S cells [1]; DEX 0.34 μM alone): 78%
percent inhibition of cell proliferation (MM.1S cells [1]; DEX 1.02 μM alone): 82%
percent inhibition of cell proliferation (MM.1S cells [1]; DEX 0.0462. nM alone): −2.5%
percent inhibition of cell proliferation (MM.1S cells [1]; DEX 0.4.16 nM alone): −5.2%
percent inhibition of cell proliferation (MM.1S cells [1]; DEX 0.4.16 nM, Cl-IB-MECA 0 nM, MM.1S, 72 h): 4.5%
percent inhibition of cell proliferation (MM.1S cells [1]; DEX 3.74. nM alone): 18%
percent inhibition of cell proliferation (MM.1S cells [1]; DEX […], Cl-IB-MECA 0 nM, MM.1S, 72 h): 9.7%
change in IC50 when cultured in the presence of IL-6 (MM.1S cells [1]; MM.1S, 72 hours, 10 ng/ml IL-6 vs no IL-6): 2.9 fold
synergy score (MM.1S cells [1]; in combination with ADAC, MM.1S): 1.98
synergy score (MM.1S cells [1]; in combination with CGS-21680, MM.1S): 8.06
synergy score (OCI-ly10 DLBCL cells): 4.21
synergy score (H929 cells; in combination with ADAC, H929): 7.09
synergy score (KSM-12-PE cells; in combination with CGS-21680, KSM-12-PE): 1.27
synergy score (EJM cells; in combination with CGS-21680): 5.32
synergy score (RPMI-8226 cells): 4.71
synergy score (SU-DHL6 DLBCL cells): 4.85
synergy score (MM.1R cells): 0.33
synergy score (ANBL-6 cells): 1.25
Induction of CLL cell apoptosis ([2]; Patient #1, Dexamethasone 1 nM alone): 9.3%
Induction of CLL cell apoptosis ([2]; Patient #1, Dexamethasone 10 nM alone): 33%
Induction of CLL cell apoptosis ([2]; Patient #1, Dexamethasone 100 nM alone): 56%
Induction of CLL cell apoptosis ([2]; Patient #2, Dexamethasone 8.4 nM alone): 8.4%
Induction of CLL cell apoptosis ([2]; Patient #2, Dexamethasone 11 nM alone): 11%
Induction of CLL cell apoptosis ([2]; Patient #2, Dexamethasone 36 nM alone): 36%
Induction of CLL cell apoptosis ([2]; Patient #2, Dexamethasone 50 nM alone): 50%
apoptosis, CLL cells patient 1 ([2]; patient 1, 48 hours): 33%
apoptosis, CLL cells patient #2 ([2]; patient #2, 48 hours): 27%
inhibition (MM.1S cells [3]): 47% and 36% and 60% and 48%

COC1=C2C[C@@H](C)C[C@H](OC)[C@H](O)[C@@H](C)/C=C(\C)[C@H](OC(N)=O)[C@@H](OC)/C=C\C=C(/C)C(=O)NC(=CC1=O)C2=O [geldanomycin]
synergy score [4]: 1.27
synergy score (MM.1S cells [1]): 2.2
synergy score [5]: 2.47
synergy score (H929 cells): 1.82
synergy score (KSM-12-PE cells; in combination with HE-NECA, KSM-12_PE): 1.37
synergy score [6]: 1.84
synergy score (EJM cells; in combination with HE-NECA): 1.48
synergy score [7]: 2.1
